Assay results published in patent US11553716B2, “Agricultural and horticultural fungicide composition” (Nippon Soda Co., Ltd., priority 2018, dated 2023).
Read-outs that look alike come from different tables or passages of the source.

Tested on: cucumber gray mold disease fungi (Botrytis cinerea)
Test: Cucumber gray mold control test
Type: in vivo
Conditions: for pest or weed control at 0.025 ppm: Compound A 0.025 ppm alone (Compound B 0 ppm); for pest or weed control at 0.0063 ppm: Compound A 0.0063 ppm alone (Compound B 0 ppm)
Method: The compound A and the compound B were dissolved in an organic solvent and a surfactant to obtain an emulsion. The emulsion was diluted to a prescribed concentration with water. The dilute emulsion was sprayed to cotyledons of cucumber (variety: Shimoshirazu). They were naturally dried at room temperature. Thereafter, a conidiospore suspension of cucumber gray mold disease fungi (Botrytis cinerea) was dropwise inoculated. It was placed in a dark room at 20° C. and high humidity for 4 days. Appearance of disease spots on the leaves and that on untreated leaves were compared and studied, and a control ratio was calculated. The test was carried out in duplicate.
Based on the Colby's equation, a theoretical control ratio in the dilute emulsion prepared by using the compound A and the compound B together was calculated from a measured control ratio in the dilute emulsion prepared by using the compound A alone and that in the dilute emulsion prepared by using the compound B alone. Colby's equation: E=M+N−MN/100
M: measured control ratio (%) in dilute emulsion prepared by using compound A alone
N: measured control ratio (%) in dilute emulsion prepared by using compound B alone
E: theoretical control ratio (%) in dilute emulsion prepared by using compound A and compound B together
A control ratio of 0% means that disease spots of the same level as those of the non-treatment plot were observed, and a control ratio of 100% means that no disease spot was observed.
The test was carried out in the same manner as in Example 1.

[1] = Botrytis cinerea, 96 h, read-out: Cucumber gray mold control ratio, Table 4
[2] = Botrytis cinerea, 96 h, read-out: Cucumber gray mold control ratio, Table 5
[3] = Botrytis cinerea, 96 h, Table 4, Compound B 100 ppm alone (Compound A 0 ppm), read-out: Cucumber gray mold control ratio
[4] = Botrytis cinerea, 96 h, Table 4, Compound B 0.4 ppm alone (Compound A 0 ppm), read-out: Cucumber gray mold control ratio
[5] = Botrytis cinerea, 96 h, Table 4, Compound B 1.6 ppm alone (Compound A 0 ppm), read-out: Cucumber gray mold control ratio

Compound: Cc1ccc2nc3sc(=O)sc3nc2c1 [Chinomethionat, chinomethionat]
- pest or weed control at 100 µg/mL (Botrytis cinerea, 96 h, read-out: Cucumber gray mold control ratio, Table 5, Compound B 100 ppm alone (Compound A 0 ppm)): 20%
- pest or weed control at 400 µg/mL (Botrytis cinerea, 96 h, read-out: Cucumber gray mold control ratio, Table 5, Compound B 400 ppm alone (Compound A 0 ppm)): 14%

Compound: Cc1nc2c(F)c(F)ccc2cc1Oc1cccc(F)c1C(C)(C)O [Compound A, 2-{2-[(7,8-difluoro-2-methylquinolin-3-yl)oxy]-6-fluorophenyl}propan-2-ol]
- pest or weed control at 0.025 ppm (Botrytis cinerea, 96 h, read-out: Cucumber gray mold control ratio, Table 1): 24%
- pest or weed control at 0.1 ppm (Botrytis cinerea, 96 h, read-out: Cucumber gray mold control ratio, Table 1, Compound A 0.1 ppm alone (Compound B 0 ppm)): 89%
- pest or weed control at 0.025 ppm (Botrytis cinerea, 96 h, read-out: Cucumber gray mold control ratio, Table 2): 17%
- pest or weed control at 0.1 ppm (Botrytis cinerea, 96 h, read-out: Cucumber gray mold control ratio, Table 2, Compound A 0.1 ppm alone (Compound B 0 ppm)): 48%
- pest or weed control at 0.025 ppm (Botrytis cinerea, 96 h, read-out: Cucumber gray mold control ratio, Table 3): 5%
- pest or weed control at 0.1 ppm (Botrytis cinerea, 96 h, read-out: Cucumber gray mold control ratio, Table 3, Compound A 0.1 ppm alone (Compound B 0 ppm)): 53%
- pest or weed control at 0.0063 ppm [1]: 10%
- pest or weed control at 0.025 ppm [1]: 7%
- pest or weed control at 0.1 ppm (Botrytis cinerea, 96 h, read-out: Cucumber gray mold control ratio, Table 4, Compound A 0.1 ppm alone (Compound B 0 ppm)): 26%
- pest or weed control at 0.0063 ppm [2]: 3%
- pest or weed control at 0.025 ppm [2]: 17%
- pest or weed control at 0.1 ppm (Botrytis cinerea, 96 h, read-out: Cucumber gray mold control ratio, Table 5, Compound A 0.1 ppm alone (Compound B 0 ppm)): 64%

Compound: C=CCNC(=O)c1c([Si](C)(C)C)sc(C)c1C [Compound B, silthiofam]
- pest or weed control at 400 ppm (Botrytis cinerea, 96 h, read-out: Cucumber gray mold control ratio, Table 1, Compound B 400 ppm alone (Compound A 0 ppm)): 0%
- pest or weed control at 6.3 ppm (Botrytis cinerea, 96 h, read-out: Cucumber gray mold control ratio, Table 2, Compound B 6.3 ppm alone (Compound A 0 ppm)): 0%
- pest or weed control at 25 ppm (Botrytis cinerea, 96 h, read-out: Cucumber gray mold control ratio, Table 2, Compound B 25 ppm alone (Compound A 0 ppm)): 0%
- pest or weed control at 100 ppm (Botrytis cinerea, 96 h, read-out: Cucumber gray mold control ratio, Table 2, Compound B 100 ppm alone (Compound A 0 ppm)): 5%
- pest or weed control at 0.1 ppm (Botrytis cinerea, 96 h, read-out: Cucumber gray mold control ratio, Table 3, Compound B 0.1 ppm alone (Compound A 0 ppm)): 0%
- pest or weed control at 0.4 ppm (Botrytis cinerea, 96 h, read-out: Cucumber gray mold control ratio, Table 3, Compound B 0.4 ppm alone (Compound A 0 ppm)): 0%
- pest or weed control at 1.6 ppm (Botrytis cinerea, 96 h, read-out: Cucumber gray mold control ratio, Table 3, Compound B 1.6 ppm alone (Compound A 0 ppm)): 0%

Compound: N#Cc1sc2c(=O)c3ccccc3c(=O)c=2sc1C#N [Dithianon, dithianon]
- pest or weed control at 25 µg/mL (Botrytis cinerea, 96 h, Table 4, Compound B 25 ppm alone (Compound A 0 ppm), read-out: Cucumber gray mold control ratio): 13%
- pest or weed control at 100 µg/mL [3]: 10%

Compound: CC#Cc1cc(C)nc(Nc2ccccc2)n1 [Mepanipyrim, mepanipyrim]
- pest or weed control at 0.4 µg/mL [4]: 19%
- pest or weed control at 1.6 µg/mL [5]: 29%

Compound: CC1(C)CCC(Cc2ccc(Cl)cc2)C1(O)Cn1cncn1 (stereo not drawn) [Metconazole, metconazole]
- pest or weed control at 0.4 µg/mL [4]: 22%
- pest or weed control at 1.6 µg/mL [5]: 29%

Compound: CN(C)[C@@H]1C(O)=C(C(N)=O)C(=O)[C@@]2(O)C(O)=C3C(=O)c4c(O)cccc4[C@@](C)(O)[C@H]3[C@H](O)[C@@H]12 [Oxytetracycline, oxytetracycline]
- pest or weed control at 100 µg/mL (Botrytis cinerea, 96 h, Table 5, Compound B 100 ppm alone (Compound A 0 ppm), read-out: Cucumber gray mold control ratio): 18%
- pest or weed control at 400 µg/mL (Botrytis cinerea, 96 h, Table 5, Compound B 400 ppm alone (Compound A 0 ppm), read-out: Cucumber gray mold control ratio): 21%

Compound: CCCC1COC(Cn2cncn2)(c2ccc(Cl)cc2Cl)O1 (stereo not drawn) [Propiconazole, propiconazole]
- pest or weed control at 1.6 µg/mL (Botrytis cinerea, 96 h, Table 5, Compound B 1.6 ppm alone (Compound A 0 ppm), read-out: Cucumber gray mold control ratio): 26%
- pest or weed control at 6.3 µg/mL (Botrytis cinerea, 96 h, Table 5, Compound B 6.3 ppm alone (Compound A 0 ppm), read-out: Cucumber gray mold control ratio): 42%

Compound: COC(=O)N(OC)c1ccccc1COc1ccn(-c2ccc(Cl)cc2)n1 [Pyraclostrobin, pyraclostrobin]
- pest or weed control at 1.6 µg/mL [5]: 23%
- pest or weed control at 6.3 µg/mL (Botrytis cinerea, 96 h, Table 4, Compound B 6.3 ppm alone (Compound A 0 ppm), read-out: Cucumber gray mold control ratio): 46%

Compound: Cc1cc(C)nc(Nc2ccccc2)n1 [Pyrimethanil, pyrimethanil]
- pest or weed control at 0.4 µg/mL [4]: 6%
- pest or weed control at 1.6 µg/mL [5]: 16%

Compound: [H]/N=C(/N)N[C@H]1[C@H](O)[C@@H](O)[C@H](O[C@@H]2O[C@@H](C)[C@](O)(C=O)[C@H]2O[C@@H]2O[C@@H](CO)[C@H](O)[C@@H](O)[C@@H]2NC)[C@@H](N/C(N)=N\[H])[C@@H]1O [Streptomycin, streptomycin]
- pest or weed control at 100 µg/mL [3]: 12%
- pest or weed control at 400 µg/mL (Botrytis cinerea, 96 h, Table 4, Compound B 400 ppm alone (Compound A 0 ppm), read-out: Cucumber gray mold control ratio): 13%

Compound: propineb
- Cucumber gray mold control ratio (Table 5, Compound B 100 ppm alone (Compound A 0 ppm)): 27%
- Cucumber gray mold control ratio (Table 5, Compound B 400 ppm alone (Compound A 0 ppm)): 33%
